Source: patent US20250367321A1, “COMPOSITIONS AND METHODS INVOLVING ADGRG6” (The Regents of the University of California, priority 2022, published 2025)

How the values were obtained:
[1] = system: adenyl cyclase (AC); assay: cAMP levels after treatment with the AC inhibitor; format: cell-based, human; conditions: for cAMP levels upon aAdo treatment: basal condition
From the text: (§1) CAMP is a well-known signaling molecule that initiates adipogenesis by increasing protein kinase A (pKA), which then phosphorylates early transcription factors, including C/EBPb. To test whether ADGRG6 might increase cAMP levels in preadipocytes, we measured CAMP levels in WT and ADGRG6 KO human preadipocytes in both basal condition and forskolin which is […], using ELISA. […] We also measured cAMP levels in human preadipocytes that overexpress ADGRG6. […] In order to test whether ADGRG6 can directly affect cAMP levels via adenyl cyclase (AC), that converts ATP to CAMP, we treated ADGRG6 overexpressing preadipocytes with 2′,5′-Dideoxyadenosine (aAdo), an inhibitor of AC. In the basal condition, cAMP levels were reduced in both WT and ADGRG6 overexpressing cells upon aAdo treatment (FIG. 4A). […] Furthermore, we also examined the downstream target of CAMP-PKA, CREB phosphorylation. […] In the stimulated condition, p-CREB increased in WT cells but not in ADGRG6 KO cells (FIG. 4B).

[2] = system: human preadipocytes; assay: cAMP levels by ELISA, basal or forskolin-stimulated; format: cell-based; conditions: WT human preadipocytes, forskolin treatment
From the text: as §1

SMILES | cAMP levels upon aAdo treatment ([1]; ADGRG6 overexpressing preadipocytes) | increase of cAMP levels in ADGRG6 overexpressing preadipocytes compared to WT ([1]; Ado stimulated condition) [%] | cAMP levels upon aAdo treatment ([1]; WT preadipocytes) | increase in cAMP levels compared to the basal condition [2] [fold]
C[C@H]1O[C@@H](n2cnc3c(N)ncnc32)C[C@@H]1O [aAdo, 2′,5′-Dideoxyadenosine] | reduced | 25 | reduced | –
C=C[C@@]1(C)CC(=O)[C@]2(O)[C@@]3(C)[C@@H](O)CCC(C)(C)[C@@H]3[C@H](O)[C@H](OC(C)=O)[C@@]2(C)O1 [forskolin] | – | – | – | 2
